Test [1] concerns B16F10 melanoma cells. The experiment in a line: Tumor growth of aptamer-expressing B16F10 cells injected subcutaneously into syngeneic mice. The test is classed as in vivo, C57/B16 mice. The note with it: mice bearing control tumors (wt B16F10 and B16F10-A0), cisplatin 10 mg/kg. An excerpt: To determine whether the chemosensitizing effect of A8 and A18 aptamers observed in vitro was also detected in vivo, mouse B16F10 melanoma cells were stably transfected with the aptamer expression vectors (A8, A18 and, as a control, A0). Stably transfected cells were selected using G418 (SIGMA) according to the manufacturer's instruction.
Exponentially growing B16F10 cells (wild type and aptamers-transfected) were harvested, washed in PBS, and resuspended in RPMI medium without foetal bovine serum (FBS) to a concentration of 2x10^5 B16F10 cells in 100 µl. B16F10 cells were then injected subcutaneously into the right side of syngeneic C57/B16 mice (9 mice/group). Next, some mice bearing B16F10-A0, B16F10-A8 or B16F10-A18 tumors were treated with cisplatin (10 mg/kg), given intraperitonealy as a single dose at day 6 after tumor cells injection. Tumor volume was evaluated for all mice every two days, using a caliper to measure two perpendicular diameters.

The subject of test [2] is ATPase domain of HSP70. The note with it: MAMELAK & LINGWOOD, J. Biol. Chem. 2001; cited from earlier work.

Regarding `N.N.[Cl][Pt][Cl]` [cisplatin], the “effect of cisplatin treatment on the size of the tumors” value in test [1] is “slightly reduced the size of the tumors”.

Take 3'-sulfogalactosyl ceramide [SGC]: in test [2], the “binding to the ATPase domain of HSP70” value is listed as “known to bind”. Regarding 3'-sulfogalactosylglycerolipid [SGG], the “binding to the ATPase domain of HSP70” value in test [2] is on record as “known to bind”.

(Values after patent EP2050758A1, “New polypeptides and uses thereof in cancer therapy” (INSTITUT NATIONAL DE LA SANTE ET DE LA RECHERCHE MEDICALE …, priority 2007, dated 2009).)
